A short description of the data set: Pharmacokinetic study in dogs after oral dosing of tablets with SNAC. The format is in vivo, Beagle dogs. As to the method: The purpose of this example is to determine the half-life and plasma exposure in vivo of the compounds of the present invention after p.o. administration to beagle dogs, i.e. the terminal half-life and concentration of test substance that reaches circulation with time. This is done in a pharmacokinetic (PK) study, where these parameters of the compound in question are determined. By terminal half-life is generally meant the period of time it takes to halve a certain plasma concentration, measured after the initial distribution phase.
The amount of SNAC in the tablet composition was 100-300 mg, the amount of magnesium stearate in the tablet composition was 7.7 mg, and the target amount of each test substance in the tablet composition was 3-4 mg.
Male beagle dogs, 1-7 years of age and weighing 9-17 kg during the study period, were included in the study. The dogs were dosed in a fasting state. The dogs were group housed in pens (12 hours light: 12 hours dark), and fed individually and restrictedly once daily with Royal Canin Medium Adult dog food (Royal Canin Products, China Branch, or Brogaarden A/S, Denmark). The dogs were used for repeated PK studies with a suitable wash-out period between successive dosing. An appropriate acclimatization period was given prior to initiation of the first PK study. All handling, dosing, and blood sampling of the animals were performed by trained and skilled staff. Before the studies, the dogs were fasted overnight and from 0 to 4 hours after dosing. The dogs were restricted to water 1 hour before dosing until 4 hours after dosing, but otherwise had ad libitum access to water during the whole period.
The compositions were administered by a single oral dosing to the dogs in groups of 6-8 dogs. […] The mouth was then closed, and 10 mL of tap water was given by syringe or gavage to facilitate swallowing of the tablet.
One blood sample was drawn before dosing, and additional samples were drawn at predefined time points after dosing for up to 240 hours, such as up to 10 hours, to adequately cover the full plasma concentration-time absorption profile of the test substance. For each blood sample time point, approximately 0.8 mL of whole blood was collected in a 1.5 mL EDTA-coated tube, which was gently turned to mix the sample with EDTA. Blood samples were collected in EDTA buffer (8 mM) and then centrifuged at 4° C. 2000 g for 10 minutes. Plasma was pipetted into Micronic tubes on dry ice, and kept at −20° C. or lower until analysis. Blood samples were taken as appropriate, for example from a venflon in the cephalic vein in the front leg for the first 2 hours and then with syringe from the jugular vein for the rest of the time points. The first few drops were allowed to drain from the venflon to avoid heparin saline from the venflon in the sample.
All blood samples were collected into test tubes containing EDTA for stabilisation and kept on ice until centrifugation. Plasma was separated from whole blood by centrifugation and the plasma was stored at −20° C. or lower until analysis.
The plasma was analysed for test substance using LC-MS (Liquid Chromatography-Mass Spectrometry) as known to the person skilled in the art. […] RP-HPLC separation was achieved using a linear gradient of 1:1 acetonitrile/methanol in 1% aqueous formic acid using either: a Phenomenex Onyx Monolithic C18 column (50×2.0 mm) and a flow rate of 0.8 mL/min at 30° C.; or an Agilent Poroshell 120 SB-C18 column (50×2.1 mm, 2.7 μm) at a flow rate of 0.4 mL/min at 60° C. The mass spectrometer was operated in either positive ionization SIM mode or positive ionization PRM mode.
For each individual animal, a plasma concentration-time profile was analysed by a non-compartmental model in Pharsight Phoenix WinNonLin ver.

Where [1] appears, read: oral tablet, SNAC 100 mg, test substance 3 mg, Beagle dogs, arithmetic mean.

Starred links: 1 amine or outer side, 2 acyl side, 3 side chain; linkers in the order of their positions; H or OH if unused. Non-standard residues stand in square brackets, D forms with d. Residues, ends and D or L forms follow the SMILES beside them. Groups on a side chain read outwards from the residue. *: point of attachment. C18 diacid = O=C(O)CCCCCCCCCCCCCCCCC(=O)*; γGlu = O=C(O)[C@H](CCC(=O)[*:2])N[*:1]; εLys = N[C@@H](CCCCN[*:1])C(=O)[*:2]; AEEA = NCCOCCOCC(=O)O; Aib = CC(C)(N)C(=O)O

The source of these data is US20220177538A1, “CO-AGONISTS AT GLP-1 AND GIP RECEPTORS SUITABLE FOR ORAL DELIVERY” (Novo Nordisk A/S, priority 2020, published 2022).

Usually Tmax stands for the time at which the peak concentration occurs.

As for `CC[C@H](C)[C@H](NC(=O)[C@H](Cc1ccccc1)NC(=O)[C@H](CCC(=O)O)NC(=O)[C@H](CCCNC(=N)N)NC(=O)[C@H](C)NC(=O)[C@H](C)NC(=O)[C@H](CCC(N)=O)NC(=O)[C@H](CCCCNC(=O)[C@@H](N)CCCCNC(=O)[C@@H](N)CCCCNC(=O)CC[C@H](NC(=O)CCCCCCCCCCCCCCCCC(=O)O)C(=O)O)NC(=O)[C@H](CCC(=O)O)NC(=O)[C@H](CC(C)C)NC(=O)[C@H](Cc1ccc(O)cc1)NC(=O)[C@@H](NC(=O)[C@H](CO)NC(=O)[C@H](Cc1ccc(O)cc1)NC(=O)[C@H](CC(=O)O)NC(=O)[C@H](CO)NC(=O)[C@@H](NC(=O)[C@H](Cc1ccccc1)NC(=O)[C@@H](NC(=O)CNC(=O)[C@H](CCC(=O)O)NC(=O)C(C)(C)NC(=O)[C@@H](N)Cc1ccc(O)cc1)[C@@H](C)O)[C@@H](C)O)[C@@H](C)CC)C(=O)N[C@@H](CCC(=O)O)C(=O)N[C@@H](Cc1c[nH]c2ccccc12)C(=O)N[C@@H](CC(C)C)C(=O)N[C@@H](CC(C)C)C(=O)N[C@@H](C)C(=O)NCC(=O)NCC(=O)N1CCC[C@H]1C(=O)N[C@@H](CO)C(=O)N[C@@H](CO)C(=O)NCC(=O)N[C@@H](C)C(=O)N1CCC[C@H]1C(=O)N1CCC[C@H]1C(=O)N1CCC[C@H]1C(=O)N[C@@H](CO)C(=O)O` [Compound 9] (H-Y[Aib]EGTFTSDYSIYLEK([εLys-εLys-γGlu-C18 diacid])QAAREFIEWLLAGGPSSGAPPPS-OH), where the note is “dog, in vivo, po”, the AUC/Dose stood at 12.1 kg·h/L and the Cmax/Dose is 0.24 kg/L.

Under setting [1], `CC[C@H](C)[C@H](NC(=O)[C@H](Cc1ccccc1)NC(=O)[C@H](CCC(=O)O)NC(=O)[C@H](CCCNC(=N)N)NC(=O)[C@H](C)NC(=O)[C@H](C)NC(=O)[C@H](CCC(N)=O)NC(=O)[C@H](CCCCNC(=O)[C@@H](N)CCCCNC(=O)[C@@H](N)CCCCNC(=O)CC[C@H](NC(=O)CCCCCCCCCCCCCCCCC(=O)O)C(=O)O)NC(=O)[C@H](CCC(=O)O)NC(=O)[C@H](CC(C)C)NC(=O)[C@H](Cc1ccc(O)cc1)NC(=O)[C@@H](NC(=O)[C@H](CO)NC(=O)[C@H](Cc1ccc(O)cc1)NC(=O)[C@H](CC(=O)O)NC(=O)[C@H](CO)NC(=O)[C@@H](NC(=O)[C@H](Cc1ccccc1)NC(=O)[C@@H](NC(=O)CNC(=O)[C@H](CCC(=O)O)NC(=O)C(C)(C)NC(=O)[C@@H](N)Cc1ccc(O)cc1)[C@@H](C)O)[C@@H](C)O)[C@@H](C)CC)C(=O)N[C@@H](CCC(=O)O)C(=O)N[C@@H](Cc1c[nH]c2ccccc12)C(=O)N[C@@H](CC(C)C)C(=O)N[C@@H](CC(C)C)C(=O)N[C@@H](CCCNC(=N)N)C(=O)NCC(=O)NCC(=O)N1CCC[C@H]1C(=O)N[C@@H](CCC(=O)O)C(=O)N[C@@H](CO)C(=O)NCC(=O)N[C@@H](C)C(=O)N1CCC[C@H]1C(=O)N1CCC[C@H]1C(=O)N1CCC[C@H]1C(=O)N[C@@H](CO)C(=O)O` [Compound 13] (H-Y[Aib]EGTFTSDYSIYLEK([εLys-εLys-γGlu-C18 diacid])QAAREFIEWLLRGGPESGAPPPS-OH) yielded an AUC/Dose of 14.8 kg·h/L and a Cmax/Dose of 0.29 kg/L.

As for `CC[C@H](C)[C@H](NC(=O)[C@H](Cc1ccccc1)NC(=O)[C@H](CCC(=O)O)NC(=O)[C@H](CCCNC(=N)N)NC(=O)[C@H](C)NC(=O)[C@H](C)NC(=O)[C@H](CCC(N)=O)NC(=O)[C@H](CCCCNC(=O)[C@@H](N)CCCCNC(=O)[C@@H](N)CCCCNC(=O)CC[C@H](NC(=O)CCCCCCCCCCCCCCCCC(=O)O)C(=O)O)NC(=O)[C@H](CCC(=O)O)NC(=O)[C@H](CC(C)C)NC(=O)[C@H](CC(C)C)NC(=O)[C@@H](NC(=O)[C@H](CO)NC(=O)[C@H](Cc1ccc(O)cc1)NC(=O)[C@H](CC(=O)O)NC(=O)[C@H](CO)NC(=O)[C@@H](NC(=O)[C@H](Cc1ccccc1)NC(=O)[C@@H](NC(=O)CNC(=O)[C@H](CCC(=O)O)NC(=O)C(C)(C)NC(=O)[C@@H](N)Cc1ccc(O)cc1)[C@@H](C)O)[C@@H](C)O)[C@@H](C)CC)C(=O)N[C@@H](CC(N)=O)C(=O)N[C@@H](Cc1c[nH]c2ccccc12)C(=O)N[C@@H](CC(C)C)C(=O)N[C@@H](CC(C)C)C(=O)N[C@@H](C)C(=O)NCC(=O)NCC(=O)N1CCC[C@H]1C(=O)N[C@@H](CO)C(=O)N[C@@H](CO)C(=O)NCC(=O)N[C@@H](C)C(=O)N1CCC[C@H]1C(=O)N1CCC[C@H]1C(=O)N1CCC[C@H]1C(=O)N[C@@H](CO)C(=O)O` [Compound 15] (H-Y[Aib]EGTFTSDYSILLEK([εLys-εLys-γGlu-C18 diacid])QAAREFINWLLAGGPSSGAPPPS-OH), for the setting “dog, in vivo, po”, the Tmax is on record as 2.0 h and the t1/2 came to 46 h.

For `CC[C@H](C)[C@H](NC(=O)[C@H](Cc1ccccc1)NC(=O)[C@H](CCC(=O)O)NC(=O)[C@H](CCCNC(=N)N)NC(=O)[C@H](C)NC(=O)[C@H](C)NC(=O)[C@H](CCC(N)=O)NC(=O)[C@H](CCCCNC(=O)[C@@H](N)CCCCNC(=O)[C@@H](N)CCCCNC(=O)CC[C@H](NC(=O)CCCCCCCCCCCCCCCCC(=O)O)C(=O)O)NC(=O)[C@H](CCC(=O)O)NC(=O)[C@H](CC(C)C)NC(=O)[C@H](Cc1ccc(O)cc1)NC(=O)[C@@H](NC(=O)[C@H](CO)NC(=O)[C@H](Cc1ccc(O)cc1)NC(=O)[C@H](CC(=O)O)NC(=O)[C@H](CO)NC(=O)[C@@H](NC(=O)[C@H](Cc1ccccc1)NC(=O)[C@@H](NC(=O)CNC(=O)[C@H](CCC(=O)O)NC(=O)C(C)(C)NC(=O)[C@@H](N)Cc1ccc(O)cc1)[C@@H](C)O)[C@@H](C)O)[C@@H](C)CC)C(=O)N[C@@H](CC(N)=O)C(=O)N[C@@H](Cc1c[nH]c2ccccc12)C(=O)N[C@@H](CC(C)C)C(=O)N[C@@H](CC(C)C)C(=O)N[C@@H](C)C(=O)NCC(=O)NCC(=O)N1CCC[C@H]1C(=O)N[C@@H](CO)C(=O)N[C@@H](CO)C(=O)NCC(=O)N[C@@H](C)C(=O)N1CCC[C@H]1C(=O)N1CCC[C@H]1C(=O)N1CCC[C@H]1C(=O)N[C@@H](CO)C(=O)O` [Compound 11] (H-Y[Aib]EGTFTSDYSIYLEK([εLys-εLys-γGlu-C18 diacid])QAAREFINWLLAGGPSSGAPPPS-OH), where the note is “dog, in vivo, po”, the AUC/Dose came to 7.1 kg·h/L and the Cmax/Dose is 0.19 kg/L.

Where the note is “dog, in vivo, po”, `CC[C@H](C)[C@H](NC(=O)[C@H](Cc1ccccc1)NC(=O)[C@H](CCC(=O)O)NC(=O)[C@H](CCCNC(=N)N)NC(=O)[C@H](C)NC(=O)[C@H](C)NC(=O)[C@H](CCC(N)=O)NC(=O)[C@H](CCCCNC(=O)COCCOCCNC(=O)COCCOCCNC(=O)CC[C@H](NC(=O)CCCCCCCCCCCCCCCCC(=O)O)C(=O)O)NC(=O)[C@H](CCC(=O)O)NC(=O)[C@H](CC(C)C)NC(=O)[C@H](Cc1ccc(O)cc1)NC(=O)[C@@H](NC(=O)[C@H](CO)NC(=O)[C@H](Cc1ccc(O)cc1)NC(=O)[C@H](CC(=O)O)NC(=O)[C@H](CO)NC(=O)[C@@H](NC(=O)[C@H](Cc1ccccc1)NC(=O)[C@@H](NC(=O)CNC(=O)[C@H](CCC(=O)O)NC(=O)C(C)(C)NC(=O)[C@@H](N)Cc1ccc(O)cc1)[C@@H](C)O)[C@@H](C)O)[C@@H](C)CC)C(=O)N[C@@H](CCC(=O)O)C(=O)N[C@@H](Cc1c[nH]c2ccccc12)C(=O)N[C@@H](CC(C)C)C(=O)N[C@@H](CC(C)C)C(=O)N[C@@H](C)C(=O)NCC(=O)NCC(=O)N1CCC[C@H]1C(=O)N[C@@H](CO)C(=O)N[C@@H](CO)C(=O)NCC(=O)N[C@@H](C)C(=O)N1CCC[C@H]1C(=O)N1CCC[C@H]1C(=O)N1CCC[C@H]1C(=O)N[C@@H](CO)C(=O)O` [Compound 10] (H-Y[Aib]EGTFTSDYSIYLEK([AEEA-AEEA-γGlu-C18 diacid])QAAREFIEWLLAGGPSSGAPPPS-OH) had an AUC/Dose of 8.4 kg·h/L and a Cmax/Dose of 0.20 kg/L.
